Measured values taken from patent US10118903B2, “Aminotriazole-based KDM1A inhibitors as epigenetic modulators” (MUSC FOUNDATION FOR RESEARCH DEVELOPMENT, priority 2014, dated 2018).
Entries after “also recorded” stand apart in the source; their conditions may differ.

Legend:
[1] = tested on: H3K4me2 levels in Calu 6 human anaplastic lung tumor cell line; test: H3K4 methylation in tumor cells by Western blot; format: cell-based; conditions: Calu 6 cells
Experimental: To verify that C1 and C15 have epigenetic effects in tumor cells, changes in H3K4 methylation in the Calu 6 human anaplastic lung tumor cell line were monitored, as shown in FIG. 4.
Following treatment, cells were washed twice in sterile filtered cold 1×PBS. Cells were then lysed in 200 μL of lysis buffer (20 mM Tris, 150 mM NaCl, 1 mM EDTA, 1 mM EGTA, 1 mM β-glycerol, 2.5 mM sodium pyrophosphate, and 1% Triton X-100) Protease and phosphatase inhibitors were added to these buffers (1:100 dilutions of phosphatase inhibitor cocktail I and II and protease inhibitor cocktail; Sigma). The cells were then incubated on ice for 15 min, and insoluble material was pelleted by centrifugation at 4° C.
Protein concentrations were determined by Pierce BCA protein assay kit (Thermo Sci, Product #23225). Cell lysates were subjected to SDS-PAGE, and Western blot analysis was performed with the appropriate antibodies. Primary antibodies against H3K4me2, H3K4me1, and LSD1 were from Cell Signaling; Histone H3 primary antibody was from Millipore. Proteins were visualized by enhanced chemiluminescence (ECL).

mouse heart = test: Langendorff isolated heart model, ischemia/reperfusion; conditions: versus vehicle
Text: (§1) In the Langendorff preparation, the heart is removed with preservation of a portion of the afferent and efferent blood vessels; it is then perfused in a reverse fashion via the aorta, usually with a nutrient rich, oxygenated solution (e.g. Krebs-Henseleit solution or Tyrode's solution). The backwards pressure causes the aortic valve to shut, forcing the solution into the coronary vessels, which normally supply the heart tissue with blood. This feeds nutrients and oxygen to the cardiac muscle, allowing it to continue beating for several hours after its removal from the animal. This is a useful preparation because it allows the addition of drugs (via the perfusate) and observation of their effect on the heart without the complications involved with in vivo experimentation, such as neuronal and hormonal effects from living animal (Broadley, K. J., 1970). A pressure transducer is inserted to measure a number of cardiac performance parameters including left ventricular developed pressure, left ventricular end diastolic pressure, heart rate, etc. Following the Langendorff procedure, the myocardium is cut into cross sections, and infarcted tissue is identified by the inability to take up stain; thus infarcted areas appear white, while healthy areas appear red.
The compounds described herein may be used to protect the myocardium from injury following an ischemic event. In FIG. 6, a mouse heart was subjected to ischemia by ligation of the afferent vessel in a Langendorff preparation, as described above. Prior to the induction of ischemia, hearts were either pre-treated with vehicle, verlindamycin or C1. […] In FIG. 8, the results of an experiment to measure infarcted tissue in a myocardial cross-section are shown. Results are expressed as a percentage of the area of infarct with respect to total surface area. […] The HDAC1/CoREST/LSD1 complex was pulled down with an LSD1 antibody and a Western blot for CoREST was performed.

murine myocardium = test: Infarct area in myocardial cross-section after induced myocardial ischemia; format: in vivo, mouse; conditions: 10 mg/kg; versus vehicle
Text: as §1, with “Following the Langendorff procedure, the myocardium is cut into cross sections, and infarcted tissue is identified by the inability to take up stain; thus infarcted areas appear white, while healthy areas appear red.” left out
The compounds described herein may be used to protect the myocardium from injury following an ischemic event. […] Results are expressed as a percentage of the area of infarct with respect to total surface area. […]

[2] = tested on: HDAC1/CoREST/LSD1 complex; test: Pull-down of HDAC1/CoREST/LSD1 complex with HDAC1 antibody, Western blot for CoREST; format: cell-based; conditions: primary feline cardiomyocytes, 3 h, 5 μM
Text: Co-immunoprecipitation (pull down) of intact protein complexes works by selecting an antibody that targets a known protein that is believed to be a member of a larger complex of proteins. By targeting this known member with an antibody it may become possible to pull the entire protein complex out of solution and thereby identify unknown members of the complex. This works when the proteins involved in the complex bind to each other tightly, making it possible to pull multiple members of the complex out of solution by latching onto one member with an antibody. This concept of pulling protein complexes out of solution is sometimes referred to as a “pull-down”. Co-immunoprecipitation is a powerful technique that is used regularly by molecular biologists to analyze protein-protein interactions. The co-repressor HDAC:CoREST:LSD1 complex was initially pulled down with an antibody for HDAC1 and a Western blot for CoREST was performed.

LSD1:CoREST complex = test: Pull-down of HDAC1/CoREST/LSD1 complex with LSD1 antibody, Western blot for CoREST; format: cell-based; conditions: primary feline cardiomyocytes, 3 h, 1 μM; LSD1 antibody pull-down
Experimental: Co-immunoprecipitation analysis for LSD1:CoREST complex following treatment from primary rat cardiomyocytes with 5 μM and 1 μM C1 was performed as described above. Lysates pulled down with LSD1 antibody and western blotted for CoREST (n=2).

[3] = biological target: human recombinant spermine oxidase (Homo sapiens, UniProt Q9NWM0); test: Inhibition of spermine oxidase; format: biochemical
Experimental: The assay procedure is very similar to the assay used for LSD1, except that the reaction is conducted by human recombinant spermine oxidase. the assay for C1 and related analogues was conducted as previously described (Goodwin et al., 2011).

human recombinant LSD1 = biological target: T1, human recombinant LSD1 (Homo sapiens, UniProt O60341); test: LSD1 inhibitor screening assay (Cayman Chemical kit, fluorometric); format: biochemical; conditions: 10 μM compound; Chembridge analogues table
T1 construct: purchased Cayman Chemical Item #700120
Experimental: LSD1 Inhibitor Screening Assay:
(§2) In short, 10 μM of compound was combined with the fluorometic substrate 10-acetyl-3,7-dihydroxyphenoxazine, horseradish peroxidase, human recombinant LSD1, and 100 μM dimethylated lysine at residue 4 [ARTK(diMe)[…]] (Seq. ID No: 1) for 30 mins at 37° C. Plates were read using an excitation wavelength of 535 nm and an emission wavelength of 590 nm with a SpectraMax M5 Microplate reader.

[4] = biological target: recombinant human LSD1/CoREST (Homo sapiens, UniProt O60341); test: IC50 determination by dose-response curve against recombinant LSD1/CoREST; format: biochemical
Experimental: Using a dose-response curve, the IC50 of C1 and C15 were calculated.
as §2

Sequence of human recombinant spermine oxidase (Q9NWM0 whole entry): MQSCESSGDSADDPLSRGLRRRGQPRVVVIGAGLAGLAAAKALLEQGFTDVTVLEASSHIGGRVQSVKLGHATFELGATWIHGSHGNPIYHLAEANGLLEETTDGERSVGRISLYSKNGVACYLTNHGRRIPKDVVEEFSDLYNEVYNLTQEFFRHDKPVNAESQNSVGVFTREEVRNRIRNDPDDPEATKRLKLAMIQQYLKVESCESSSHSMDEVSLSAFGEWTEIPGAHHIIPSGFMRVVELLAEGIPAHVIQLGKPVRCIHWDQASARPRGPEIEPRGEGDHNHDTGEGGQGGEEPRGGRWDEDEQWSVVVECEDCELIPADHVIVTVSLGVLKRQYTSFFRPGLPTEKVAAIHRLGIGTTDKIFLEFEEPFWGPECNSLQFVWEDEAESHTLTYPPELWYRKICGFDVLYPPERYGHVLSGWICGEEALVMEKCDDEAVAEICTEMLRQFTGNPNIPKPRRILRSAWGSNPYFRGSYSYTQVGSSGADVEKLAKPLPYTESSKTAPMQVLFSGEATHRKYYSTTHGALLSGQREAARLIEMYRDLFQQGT

SMILES: Nc1nnc(NCc2c(Cl)cccc2Oc2ccccc2)[nH]1 [Compound C1, N^3-(2-chloro-6-phenoxybenzyl)-4H-1,2,4-triazole-3,5-diamine]
- effect on H3K4 methylation ([1]; 24 or 48 hours): did not appear to have a significant effect
- left ventricular end diastolic pressure (mouse heart; 1 hour pre-treatment with 1.0 μM): reduced to near-normal levels
- left ventricular developed pressure (mouse heart; pre-treatment before ischemia, after reperfusion): restored to nearly normal levels
- infarct area as a percentage of the total left ventricular area (murine myocardium): most effective in limiting the spread of infarct; also recorded: significantly more effective than treatment with vehicle
- association of HDAC1 and CoREST [2]: disrupted the association of HDAC1 and CoREST
- association between LSD1 and CoREST (LSD1:CoREST complex): disrupted the association between LSD1 and CoREST
- mode of inhibition of spermine oxidase [3]: competitive inhibitor
- inhibition of spermine oxidase compared with verlindamycin ([3]; assayed between 0.1 and 1.0 μM): improved inhibition of spermine oxidase over verlindamycin
- IC50 ([3]; assayed between 0.1 and 1.0 μM, read-out: IC50 against spermine oxidase (SMOX)): 40 nM

SMILES: COc1ccccc1CNc1n[nH]c(NCc2ccccc2OC)n1 [Compound C15, N^3,N^5-bis(2-methoxybenzyl)-1H-1,2,4-triazole-3,5-diamine]
- inhibition at 10 µM (human recombinant LSD1): 74.9 ± 1.9%
- IC50 [4]: 2200 nM
- H3K4me2 levels ([1]; 72 hours): significant, dose-dependent increase
- association of HDAC1 and CoREST [2]: disrupted the association of HDAC1 and CoREST
- inhibition of spermine oxidase compared with verlindamycin ([3]; assayed between 0.1 and 1.0 μM): improved inhibition of spermine oxidase over verlindamycin
